The source of these data is patent publication US7776312B2, “Method of treating Alzheimer's disease comprising administering deferoxamine (DFO) to the upper one-third of the nasal cavity” (HealthPartners Research Foundation, priority 2004, dated 2010).

Series [1] relates to middle cerebral artery occlusion (MCAO). In words: Pre-stroke intranasal DFO, 2-hour middle cerebral artery occlusion (MCAO), infarct volume by TTC staining. Type of series: in vivo, rats. Conditions: for total infarct volume: rats.
For series [2] the test system is unchanged. The series is described as follows: Intranasal DFO pretreatment, infarct volume and brain swelling 24 hours after MCAO. It counts as in vivo, rats. Conditions: 3 doses of 60 μl 10% intranasal DFO 48 hours before MCAO. The method, then: Further, another experiment was conducted to further discover the mechanisms that may be manipulated in order to achieve the desired therapeutic results. Thus, rats were treated with 3 doses of 60 μl 10% intranasal deferoxamine (DFO), or water, at 3 hours intervals. The two groups of rats were either sacrificed or subjected to a 2-hour Middle Cerebral Artery Occlusion (MCAO) 48 hours later. Those rats undergoing the MCAO were sacrificed 24 hours after the MCAO.
In addition to the bioarray and PCR results, total infarct volume, cortical infarct volume and brain swelling were assessed for the rats pretreated with intranasal DFO with stroke and untreated rats with stroke 24 hours after MCAO.

Series [3] has as its system hypoxia-inducible factor-1α (HIF-1α). The series is described as follows: Western blot of brain proteins for HIF-1α after intranasal DFO. It counts as in vivo. Conditions: rats, Western blot quantitation. From the text:
Intranasal DFO reduced infarct volumes by 60% when expressed as either total infarct, cortical infarct, or striatal infarct volume. Brain proteins from olfactory bulb and from striatum were subjected to Western blot analysis for hypoxia-inducible factor-1α (HIF-1α). See FIG. 1 for a bar graph illustrating the results (10) for control animals (C) and pretreated animals (P). The results are shown broken into the cortex (12), striatum (14) and overall total (16) infarct volumes for control/pretreated animals. […] Here, the control animals' (C) total infarct volume is 175.93 mm^3 (18), while the pretreated animals' (P) total infarct volume is 70.57 mm^3 (20). Thus, a reduction of 60% in infarct volume is realized by way of this pretreatment regimen.
Additional brain samples from animals treated with intranasal DFO were generated, total RNA was isolated from olfactory bulb and striatum, and cDNA was generated using primers specific for HIF-1α.

For series [4] the following is noted: humans, intravenous; cited from earlier work.
Series [5] is described as follows: Intranasal delivery of DFO (59Fe-labeled ferrioxamine), tissue concentrations by scintillation counting. Type of series: in vivo, rats. Conditions: rat, 6 mg, intranasal ~6 mg, 25 min. after onset of delivery. An excerpt:
Following delivery, tissues were removed for analysis.

For series [6] the following is noted: cited from earlier work.
Series [7] deals with middle cerebral artery occlusion (MCAO). In words: Post-stroke intranasal DFO at start of reperfusion after MCAO, infarct volume. It counts as in vivo, rats. The protocol:
In this regard, let us now turn to FIG. 4. Here, the experimental method is as follows: The method is the same as described above in connection with FIG. 1, except that the subjects are not pretreated. […] Six doses of 10% DFO (6 mg DFO/dose) were administered in this manner; three doses of 10% DFO at 2-hour intervals on the day of surgery and the remaining three doses of 10% DFO at three-hour intervals on the day following surgery (40).

Where [8] appears, read: one dose of 10% DFO intranasal pre-stroke, 5 days after MCAO.
[9] abbreviates: three doses of 3% DFO intranasal pre-stroke.
Where [10] appears, read: three doses of 10% DFO intranasal pre-stroke, 5 days after MCAO.

The structures appear in SMILES notation. Like-named read-outs stand apart in the source and are kept apart here.

In the case of `CC(=O)N(O)CCCCCNC(=O)CCC(=O)N(O)CCCCCNC(=O)CCC(=O)N(O)CCCCCN` [DFO, deferoxamine], in series [1] (setting [8]), the “overall infarct volume reduction” value is listed as 26%. The total infarct volume in series [1] (setting [8]) worked out at 86.72 mm^3; in series [1] (setting [9]), 101.83 mm^3; in series [1] (three doses of 10% DFO (6 mg each) intranasal 48 hours before 2-hour MCAO, 5 days after MCAO) it was 70.57 mm^3; in series [7] (rats, six doses of 10% DFO (6 mg/dose) intranasal post-stroke from start of reperfusion), 116 mm^3. The “reduction of total infarct volume” value in series [1] (setting [9]) turned out to be 35%; in series [1] (three doses of 10% DFO intranasal pre-stroke, 5 days after MCAO, vs distilled water controls), 60%; in series [7] (six doses of 10% DFO intranasal post-stroke) it was 55%. Besides, in series [1] (setting [10]), the “reduction of cortical infarct volume” value worked out at 60%. Further, the “reduction of striatal infarct volume” value in series [1] (setting [10]) worked out at 60%. Besides, the “decrease in brain swelling” value in series [2] stood at 71%. Further, the “decrease in cortical infarct volume” value in series [2] came to 72%. Moreover, the “decrease in total infarct volume” value in series [2] (rats) came to 56%. The “elevation of HIF-1α protein in olfactory bulb” value in series [3] is “approximately 30 fold”. In addition, the “elevation of HIF-1α protein in striatum” value in series [3] is around 20 fold. Further, the plasma half-life entry in series [4] is given as “less than 10 minutes”. The concentration at 25 min stood at 12000 µM in series [5] (olfactory epithelium, read-out: DFO concentration, Olfactory Epithelium); 2.6 µM in series [5] (septal nucleus, read-out: DFO concentration, Septal Nucleus); 1.1 µM in series [5] (thalamus, read-out: DFO concentration, Thalamus). Besides, the “effect of intravenous bolus injection” value in series [6] is listed as “causes acute hypotension”.
